Laboratory results from patent US20070213301A1 (ACHILLION PHARMACEUTICALS, INC., priority 2006, published 2007).

Test system: HCV replicon
Test: HCV replicon replication assay (NPTII ELISA)
Format: cell-based, Hepatitis C virus (Huh-7 cells)
Settings: Hepatitis C virus, Huh-7, 72 h, inhibition of HCV replicon replication in Huh-7 HCV replicon-containing cells, three days incubation, NPT level by ELISA
Procedure: Compounds claimed herein are tested for the ability to inhibit viral replication of the Hepatitis C replicon in cultured cells in which the HCV replicon construct has been incorporated. The HCV replicon system was described by Bartenschlager, et. al (Science, 285, pp. 110-113 (1999)). The replicon system is predictive of in vivo anti-HCV activity; compounds that are active in humans uniformly evidence activity in the replicon assay.
In this assay HCV replicon containing cells are treated with different concentrations of the test compound to ascertain the ability of the test compound to suppress replication of the HCV replicon. As a positive control, HCV replicon-containing cells are treated with different concentrations of interferon alpha, a known inhibitor of HCV replication. The replicon assay system includes Neomycin Phosphotransferase (NPT) as a component of the replicon itself in order to detect the transcription of replicon gene products in the host cell. Cells in which the HCV replicon is actively replicating have high levels of NPT; the level of NPT is proportional to HCV replication. […] The NPT level of each sample is measured using a captured ELISA.
The HCV replicon contains, 5′-3′, the HCV-IRES, the neomycin phosphotransferase (neo) gene, the IRES of encephalomyocarditis virus, which directs translation of HCV sequences NS3 to NS5B, and the 3′-NTR. The sequence of the HCV replicon has been deposited in GenBank (Accession no. AJ242652).
The replicon is transfected into Huh-7 cells using standard methods such as electroporation.
The cells are then seeded onto 96-well plates at a density of 6000-7500 cells/100 microliters/well (6-7.5×10^5 cells/10 ml/plate). The plates are then incubated at 37° C. in a 5% CO2 incubator.
HCV replicon-containing cells are rinsed with once PBS once; 2 mls of trypsin are then added. Cells are incubated at 37° C. in a 5% CO2 incubator for 3-5 minutes. 10 mls of complete medium is added to stop the reaction. Cells are blown gently, put into a 15 ml tube, and spun at 1200 rpm for four minutes. The trypsin/medium solution is removed and 5 mls of medium (500 ml DMEM (high glucose)) from BRL catalog #12430-054; 50 mls 10% FBS, 5% Geneticin G418 (50 mg/ml, BRL catalog #10131-035), 5 ml MEM non-essential amino acids (100× BRL #11140-050) and 5 ml pen-strep (BRL #15140-148) is added. The cells and media are mixed carefully
Cells are plated with screening medium (500 ml DMEM (BRL #21063-029), 50 ml FBS (BRL #10082-147) and 5 ml MEM non-essential amino acid (BRL #11140-050) at 6000-7500 cells/100 μl/well of 96 well plate (6-7.5×10^5 cells/10 ml/plate). Plates are placed into 37° C. 5% CO2 incubator overnight.
The following morning, drugs (test compounds or interferon alpha) are diluted in 96 well U bottom plates with media or DMSO/media, depending on the final concentration chosen for screening. Generally for 6 concentrations of each test compounds ranging from 10 micromolar to 0.03 micromolar are applied. 100 μl of the test compound dilution is placed in wells of the 96 well plate containing the HCV replicon cells. Media without drug is added to some wells as a negative controls. DMSO is known to affect cell growth. Therefore, if drugs diluted in DMSO are used, all wells, including negative control (media only) and positive control (interferon alpha) wells, must contain the same concentration of DMSO, for single dose screening. The plates are incubated at 37° C. in a humidified 5% CO2 environment for three days.
On day four, the NTPII assay is quantitated. The medium is poured from the plates and the plates are washed once in 200 μl of PBS. The PBS is then decanted and the plates tapped in a paper towel to remove any remaining PBS. Cells are fixed in situ with 100 μl/well of pre-cooled (−20° C.) methanol:acetone (1:1) and the plates are placed at −20° C. for 30 minutes.
The fixing solution is poured from the plates and the plates allowed to air-dry completely (approximately one hour). […]

**Q.** `CCCCCCCCOc1ccc(N(C(=O)c2cc(C)on2)c2nc(-c3nc4ccccc4s3)cs2)cc1` [Compound 90] was tested. Which EC50 did it give?
**A.** 1 to 10 µM

**Q.** How did the EC50 turn out when `CCCCCN(C)c1ccc(N(C(N)=O)c2nc(-c3ccc(F)c(F)c3)cs2)cc1C(F)(F)F` [Compound 107] was run?
**A.** < 1 µM

Same assay, conditions: Hepatitis C virus, Huh-7, 72 h, inhibition of HCV replicon replication in Huh-7 HCV replicon-containing cells, three days incubation, NPT level by ELISA; read-out: EC50

**Q.** For `CCCCCCOc1ccc(N(C(N)=O)c2nc(-c3ccc(F)cc3)cs2)cc1` [Compound 122, 1-(4-(4-fluorophenyl)thiazol-2-yl)-1-(4-(hexyloxy)phenyl)urea], which EC50 is on record?
**A.** < 1 µM

**Q.** `CCCCCOc1ccc(N(C(=O)C(=O)OC)c2nc(-c3ccc(F)cc3)cs2)cc1F` [Compound 45, methyl 2-((3-fluoro-4-(pentyloxy)phenyl)(4-(4-fluorophenyl)thiazol-2-yl)amino)-2-oxoacetate] was tested. Which EC50 did it give?
**A.** < 1 µM

**Q.** `CCCCCOc1ccc(N(C(=O)OC)c2nc(-c3cccnc3)cs2)cc1C(F)(F)F` [Compound 31, methyl 4-(pentyloxy)-3-(trifluoromethyl)phenyl(4-(pyridin-3-yl)thiazol-2-yl)carbamate] was tested. Which EC50 did it give?
**A.** < 1 µM

**Q.** How did the EC50 turn out when `NC(=O)N(c1ccc(OCC2CCCCC2)c(F)c1)c1nc(-c2ccc(F)cc2)cs1` [Compound 117, 1-(4-(cyclohexylmethoxy)-3-fluorophenyl)-1-(4-(4-fluorophenyl)thiazol-2-yl)urea] was run?
**A.** 1 to 10 µM

**Q.** With `CCCCCCCCOc1ccc(N(C(=O)NC(C)(C)C)c2nc(-c3cccnc3)cs2)cc1` [Compound 74, 3-tert-butyl-1-(4-(octyloxy)phenyl)-1-(4-(pyridin-3-yl)thiazol-2-yl)urea] as the compound, how does the EC50 read?
**A.** 1 to 10 µM

**Q.** Which EC50 does the source give for `CCCCCOc1ccc(N(C(N)=O)c2nc(-c3ccccn3)cs2)cc1F` [Compound 112, 1-(3-fluoro-4-(pentyloxy)phenyl)-1-(4-(pyridin-2-yl)thiazol-2-yl)urea] here?
**A.** 1 to 10 µM

**Q.** `CCCCCCCCOc1ccc(N(C(=O)CCC(=O)O)c2nc(-c3cccnc3)c(F)s2)cc1C(F)(F)F` [Compound 163, 4-((5-fluoro-4-(pyridin-3-yl)thiazol-2-yl)(4-(octyloxy)-3-(trifluoromethyl)phenyl)amino)-4-oxobutanoic acid] was tested. Which EC50 did it give?
**A.** < 1 µM

**Q.** Which EC50 does the source give for `CCCCCOc1ccc(N(C(=O)NC(C)(C)C)c2nc(-c3cccnc3)cs2)cc1C(F)(F)F` [Compound 76, 3-tert-butyl-1-(4-(pentyloxy)-3-(trifluoromethyl)phenyl)-1-(4-(pyridin-3-yl)thiazol-2-yl)urea] here?
**A.** < 1 µM

**Q.** How did the EC50 turn out when `CCCCCCCCOc1ccc(N(C(=O)C(=O)OC)c2nc(-c3ccc(Cl)s3)cs2)cc1` [Compound 97, methyl 2-((4-(5-chlorothiophen-2-yl)thiazol-2-yl)(4-(octyloxy)phenyl)amino)-2-oxoacetate] was run?
**A.** < 1 µM

**Q.** `C/C=N/N(c1ccc(OCCCCCCCC)c(C(F)(F)F)c1)c1nc(-c2cccnc2)cs1` [Compound 189, (E)-2-(2-ethylidene-1-(4-(octyloxy)-3-(trifluoromethyl)phenyl)hydrazinyl)-4-(pyridin-3-yl)thiazolo] was tested. Which EC50 did it give?
**A.** < 1 µM

**Q.** How did the EC50 turn out when `O=C(O)CCC(=O)N(c1ccc(OCCCCc2cccs2)c(C(F)(F)F)c1)c1nc(-c2cccnc2)c(F)s1` [Compound 174, 4-((5-fluoro-4-(pyridin-3-yl)thiazol-2-yl)(4-(4-(thiophen-2-yl)butoxy)-3-(trifluoromethyl)phenyl)amino)-4-oxobutanoic acid] was run?
**A.** < 1 µM

**Q.** With `Cc1ccc(-c2csc(N(C(N)=O)c3ccc(OCC4CCCCC4)c(F)c3)n2)cn1` [Compound 114, 1-(4-(cyclohexylmethoxy)-3-fluorophenyl)-1-(4-(6-methylpyridin-3-yl)thiazol-2-yl)urea] as the compound, how does the EC50 read?
**A.** 1 to 10 µM

**Q.** For `CCCCCOc1ccc(N(C(=O)C2CCCCC2)c2nc(-c3ccccn3)cs2)cc1C(F)(F)F` [Compound 96, N-(4-(pentyloxy)-3-(trifluoromethyl)phenyl)-N-(4-(pyridin-2-yl)thiazol-2-yl)cyclohexanecarboxamide], which EC50 is on record?
**A.** < 1 µM

**Q.** `CCCCCCCCOc1ccc(N(C(=O)CCC(=O)O)c2nc(-c3cccnc3)cs2)cc1C(F)(F)F` [Compound 161, 4-((4-(octyloxy)-3-(trifluoromethyl)phenyl)(4-(pyridin-3-yl)thiazol-2-yl)amino)-4-oxobutanoic acid] was tested. Which EC50 did it give?
**A.** < 1 µM

**Q.** How did the EC50 turn out when `CCCCCCCCOc1ccc(N(C(=O)CC(=O)OC)c2nc(-c3ccc(F)cc3)cs2)cc1` [Compound 44, methyl 3-((4-(4-fluorophenyl)thiazol-2-yl)(4-(octyloxy)phenyl)amino)-3-oxopropanoate] was run?
**A.** < 1 µM

**Q.** For `CCCCCCOc1ccc(N(C(N)=O)c2nc(-c3ccncc3)cs2)cc1` [Compound 146, 1-(4-(hexyloxy)phenyl)-1-(4-(pyridin-4-yl)thiazol-2-yl)urea], which EC50 is on record?
**A.** 1 to 10 µM

**Q.** How did the EC50 turn out when `CCCCCOc1ccc(N(CCN(C)C)c2nc(-c3cccnc3)cs2)cc1C(F)(F)F` [Compound 11, N1,N1-dimethyl-N2-(4-(pentyloxy)-3-(trifluoromethyl)phenyl)-N2-(4-(pyridin-3-yl)thiazol-2-yl)ethane-1,2-diamine] was run?
**A.** 1 to 10 µM

**Q.** `CCCCCCCCOc1ccc(N(C(=O)CO)c2nc(-c3cccnc3)cs2)cc1C(F)(F)F` [Compound 159, 2-hydroxy-N-(4-(octyloxy)-3-(trifluoromethyl)phenyl)-N-(4-(pyridin-3-yl)thiazol-2-yl)acetamide] was tested. Which EC50 did it give?
**A.** < 1 µM

**Q.** How did the EC50 turn out when `CCCCCCCCOc1ccc(N(C(C)=O)c2nc(-c3cccnc3)cs2)cc1` [Compound 68, N-(4-(octyloxy)phenyl)-N-(4-(pyridin-3-yl)thiazol-2-yl)acetamide] was run?
**A.** < 1 µM

**Q.** `NC(=O)N(c1ccc(OCC2CCCCC2)c(F)c1)c1nc(-c2ccc3c(c2)NC(=O)CO3)cs1` [Compound 116, 1-(4-(cyclohexylmethoxy)-3-fluorophenyl)-1-(4-(3-oxo-3,4-dihydro-2H-benzo[b][1,4]oxazin-6-yl)thiazol-2-yl)urea] was tested. Which EC50 did it give?
**A.** > 10 µM

**Q.** `CCCCCOc1ccc(N(C(=O)OC)c2nc(-c3ccc(F)cc3)cs2)cc1F` [Compound 46, methyl 3-fluoro-4-(pentyloxy)phenyl(4-(4-fluorophenyl)thiazol-2-yl)carbamate] was tested. Which EC50 did it give?
**A.** 1 to 10 µM

**Q.** For `CCCCCCCCOc1ccc(N(C(=O)CNC(=O)OC(C)(C)C)c2nc(-c3cccnc3)c(F)s2)cc1C(F)(F)F` [Compound 164, tert-butyl 2-((5-fluoro-4-(pyridin-3-yl)thiazol-2-yl)(4-(octyloxy)-3-(trifluoromethyl)phenyl)amino)-2-oxoethylcarbamate], which EC50 is on record?
**A.** < 1 µM

**Q.** With `CC/C=N/N(c1ccc(OCCCCCCCC)cc1)c1nc(-c2cccnc2)cs1` [Compound 188, (E)-2-(1-(4-(octyloxy)phenyl)-2-propylidenehydrazinyl)-4-(pyridin-3-yl)thiazolo] as the compound, how does the EC50 read?
**A.** < 1 µM

**Q.** With `CCCCCOc1ccc(N(C(=O)c2cc(C)on2)c2nc(-c3nc4ccccc4s3)cs2)cc1C(F)(F)F` [Compound 94, N-(4-(benzo[d]thiazol-2-yl)thiazol-2-yl)-5-methyl-N-(4-(pentyloxy)-3-(trifluoromethyl)phenyl)isoxazole-3-carboxamide] as the compound, how does the EC50 read?
**A.** < 1 µM

**Q.** Which EC50 does the source give for `CCCCCOc1ccc(N(C(=O)CO)c2nc(-c3cccnc3)cs2)cc1C(F)(F)F` [Compound 62, 2-hydroxy-N-(4-(pentyloxy)-3-(trifluoromethyl)phenyl)-N-(4-(pyridin-3-yl)thiazol-2-yl)acetamide] here?
**A.** < 1 µM

**Q.** Which EC50 does the source give for `CCCCCOc1ccc(N(C(N)=O)c2nc(-c3ccc(F)c(F)c3)cs2)cc1F` [Compound 113, 1-(4-(3,4-difluorophenyl)thiazol-2-yl)-1-(3-fluoro-4-(pentyloxy)phenyl)urea] here?
**A.** 1 to 10 µM
